# Reference: US20250249001A1, “METHODS OF TREATING SUBSTANCE USE DISORDER WITH 4-(3-CYANOPHENYL)-6-PYRIDINYLPYRIMIDINE MGLU5 NEGATIVE ALLOSTERIC MODULATORS” (Tempero Bio, Inc., priority 2022, published 2025)
# Legend:
# [1] = system: voluntary home-cage alcohol drinking by Wistar rats; test: Home-cage alcohol drinking, repeated treatment (A-B-A design); assay type: in vivo
# Protocol: Home-cage alcohol drinking method. Oral alcohol and water intake were examined using a two-bottle choice protocol, which is standard in the field and commonly used in our laboratory. Male Wistar rats (n=12) were first adapted to drinking from a 50 ml conical tube fitted with a standard stainless-steel ball bearing sipper tube that limits spillage. Then, two bottles were place on the cage daily. One bottle contained an alcohol solution and the other contained water. Bottles containing fresh solutions were weighed daily before and after a 24 hr access period. After drug treatment, bottles were weighed after 1 hr and 24 hrs of access. Each week, rats had 4-5 days of sweetened alcohol and water available and the remaining days only water.
# Briefly, rats were first exposed to alcohol (10% v/v)+sucrose (5% w/v). versus water in the two bottles. Then, over a period of 6-weeks, the concentrations of alcohol and sucrose were gradually adjusted to alcohol (8% v/v)+sucrose (2% w/v) to achieve intake of pharmacologically relevant doses of alcohol. Rats were maintained at this concentration for the duration of the experiment for both acute (3.1.a) and chronic (3.1.b) home-cage drinking studies. Use of sweetened alcohol solutions in preclinical research provides face validity to the binge-intoxication stage of alcohol addiction in humans where sweeteners are commonly added to alcohol.
# Repeated treatment with Compound 1. To evaluate effects of repeated treatment with Compound 1 on home-cage alcohol drinking, baseline intake of sweetened alcohol and water, and habituation to i.p. injections was conducted as described above in a separate group of male Wistar rats (n=12). During habituation to i.p. injections, rats were moved to a 7 day per week alcohol access schedule to allow for chronic daily treatment. Rats were then administered vehicle (4 consecutive days), Compound 1 (3 mg/kg, 7 consecutive days), then vehicle (4 consecutive days) according to an A-B-A experimental design for a total of 15 days. Access to alcohol was provided 1-hr after vehicle or Compound 1 injection. Alcohol and water intake were measured as described above after 1-hr and 24-hrs of access.
# [2] = system: operant alcohol self-administration in Wistar rats; test: Operant alcohol self-administration, repeated oral pellet treatment (A-B-A); assay type: in vivo; settings: 10 mg/kg oral in palatable food pellet, 2-hr before daily sessions, 7 days (Days 6-12)
# Protocol: Repeated treatment with Compound 1. To evaluate effects of repeated treatment with Compound 1 on operant alcohol self-administration, a separate group of rats (n=12) was trained to self-administer alcohol as described above. After operant behavior reached a stable baseline, habituation to i.p. injections were conducted as described above. […] Another group of rats (n=12) was then trained to self-administer alcohol and a new injection protocol (e.g., 2-hr pretreatment time) was initiated. […] In a final attempt to evaluate repeated treatment, we re-established baseline behavior in the same rats and administered Compound 1 (0 and 10 mg/kg) orally in a palatable food pellet as previously reported. Doses were administered according to an A-B-A (vehicle-Compound 1-vehicle) experimental design with 5 consecutive days of exposure to each vehicle treatment and 7 days of exposure to Compound 1. There was no observable stress response using this method of exposure. Operant self-administration (number of alcohol reinforced lever presses) was recorded during daily 15-min test sessions (n=12 rats).
# In a final attempt to salvage the study, injections were halted in the second group of rats and EtOH self-administration behavior was allowed to stabilize over a 1-week period. […]
# [3] = system: cue-induced reinstatement of alcohol-seeking behavior in Wistar rats; test: Cue-induced reinstatement of alcohol-seeking behavior; assay type: in vivo; settings: 10 mg/kg IP
# Source text: Operant alcohol self-administration training. Male Wistar rats (n=12) were trained to self-administer alcohol in two-lever operant conditioning chambers as described above. A total of n=11 rats completed the experiment. […] Fluid cups were inspected at the end of each session to verify intake. Extinction.
# Cue-induced reinstatement test. On the next day, rats were given a reinstatement test in which lever press responses were followed by presentation of the cue light and auditory pump sound (as during training) but in the absence of ethanol reinforcement to examine cue-induced alcohol-seeking behavior (see Cue-induced reinstatement method FIG. 9A, right panel). One hour prior to the reinstatement session rats were divided into 2 equal subgroups groups and administered Compound 1 (0 or 10 mg/kg, IP) to determine if Compound 1 alters cue-induced reinstatement of alcohol-seeking behavior as compared to vehicle control. Groups were matched on body weight, baseline response totals, and extinction performance prior to drug testing. After this test, rats were returned to baseline conditions. […]
# mGluR5 = settings: cited from earlier work
smiles,measurement,setting,value
"N#Cc1cc(Cl)cc(-c2cc(-c3ccc(F)cn3)ncn2)c1 [Compound 1, 3-chloro-5-[6-(5-fluoropyridin-2-yl)pyrimidin-4-yl]benzonitrile]","H2O intake, 1-hr access, averaged across the 3 experimental phases",[1]; 3 mg/kg i.p. daily for 7 days,decreased water intake
same,"H2O intake, 24-hrs access, averaged across the experimental phases",[1]; 3 mg/kg i.p. daily for 7 days,reduction in H2O intake as compared to the first vehicle condition only
same,"alcohol intake, 24-hr access, averaged over each treatment condition",[1]; 3 mg/kg i.p. daily for 7 days,no effect
same,"average alcohol intake over the 7-day treatment phase, 1-hr access, vs Veh-1 and Veh-2",[1]; 3 mg/kg i.p. daily for 7 days,significantly decreased alcohol intake
same,"H2O intake, 1-hr access, individual treatment days","[1]; 3 mg/kg i.p. daily, days 5-11",failed to identify a significant change at a particular treatment day
same,"H2O intake, 24-hrs access, individual treatment days","[1]; 3 mg/kg i.p. daily, days 5-11",significant reductions in H2O intake at days 7 and 11
same,"alcohol intake, 1-hr access, individual treatment days vs day 4 vehicle","[1]; 3 mg/kg i.p. daily, days 5-11",reduced alcohol intake only on day 5
same,"alcohol intake, 24-hr access, individual treatment days vs day 4 vehicle","[1]; 3 mg/kg i.p. daily, days 5-11",reduced alcohol intake only on day 5
same,"EtOH reinforced lever press responses, repeated treatment",[2],failed to alter operant alcohol self-administration
same,"cue-induced reinstatement, total responses on the previously active lever",[3]; one hour prior to reinstatement session,blocked
same,"cue-induced reinstatement, responding relative to extinction performance",[3]; vehicle ~400% of extinction level,fully blocked
same,affinity for mGluR5,"mGluR5; following systemic administration in rats, mice, and primates",high affinity
same,brain penetration,mGluR5; systemic administration,brain penetrant
